Seven compounds from ChEMBL document CHEMBL1128898, “Sch 51048, a novel broad-spectrum orally active antifungal agent: Synthesis and preliminary structure-activity profile” (1995) can be followed below.

Format in all cases: functional
Common to all, as to details: inhaled or nasal

Assay [1] deals with Mus musculus. Nature of the assay: Compound was tested for percentage survival of immunocompromized CF-1 mice infected by inhalation with Aspergillus flavus strain ND134 at dose 50 mg/Kg.
The test system of assay [2] is Mus musculus. Kind of assay: Compound was tested for percentage survival of immunocompromized CF-1 mice infected by inhalation with Aspergillus fumigatus strain ND142 conidia at dose 50 mg/Kg.
The subject of assay [3] is Mus musculus. Nature of the assay: Compound was tested for percentage survival of immunocompromized CF-1 mice infected […] albicans strain C-65 colony forming units at dose 10 mg/Kg.
Assay [4] relates to Mus musculus. Nature of the assay: Compound was tested for percentage survival of immunocompromized CF-1 mice infected […] albicans strain C-65 colony forming units at dose 25 mg/Kg.
Assay [5] concerns Mus musculus. Nature of the assay: Compound was tested for percentage survival of immunocompromized CF-1 mice infected […] albicans strain C-65 colony forming units at dose 50 mg/Kg.
The test system of assay [6] is Mus musculus. Kind of assay: Compound was tested for percentage survival of normal CF-1 Mice infected […] albicans strain C-65 colony forming units at dose 10 mg/Kg.
Assay [7] concerns Mus musculus. Kind of assay: Compound was tested for percentage survival of normal CF-1 Mice infected […] albicans strain C-65 colony forming units at dose 1 mg/kg.
The subject of assay [8] is Mus musculus. Kind of assay: Compound was tested for percentage survival of normal CF-1 Mice infected […] albicans strain C-65 colony forming units at dose 25 mg/Kg.
The subject of assay [9] is Mus musculus. Nature of the assay: Compound was tested for percentage survival of immunocompromized CF-1 mice infected by inhalation with Aspergillus flavus strain ND134 at dose 100 mg/Kg.
The test system of assay [10] is Mus musculus. Kind of assay: Compound was tested for percentage survival of immunocompromized CF-1 mice infected by inhalation with Aspergillus fumigatus strain ND142 conidia at dose 100 mg/Kg.
For assay [11], the system named is Mus musculus. Kind of assay: Compound was tested for percentage survival of normal CF-1 Mice infected […] albicans strain C-65 colony forming units at dose 50 mg/Kg.

In the case of `CCC(CC)n1ncn(-c2ccc(N3CCN(c4ccc(OC[C@@H]5CO[C@@](Cn6cncn6)(c6ccc(F)cc6F)C5)cc4)CC3)cc2)c1=O`, the survival at 50 mg/kg in the assay with Mus musculus [1] worked out at 60%; with Mus musculus [2] it was 70%; with Mus musculus [5] it was 50%. Besides, the values for the survival at 10 mg/kg in the assay with Mus musculus [3] and with Mus musculus [6] were 20% and 100%, respectively. Besides, the results for the survival at 25 mg/kg with Mus musculus [4] and in the assay with Mus musculus [8] were 30% and 100%, respectively. Further, in the assay with Mus musculus [7], the survival at 1 mg/kg amounted to 80%.
As to `CCC(C)n1ncn(-c2ccc(N3CCN(c4ccc(OC[C@H]5CO[C@](Cn6cncn6)(c6ccc(Cl)cc6Cl)O5)cc4)CC3)cc2)c1=O` (some centres undefined) [ITRACONAZOLE], the survival at 100 mg/kg in the assay on Mus musculus [9] was determined as 20%; in the assay with Mus musculus [10], 10%. Also, the survival at 25 mg/kg in the assay on Mus musculus [4] and with Mus musculus [8] was 0% in each case. For the same compound, the survival at 50 mg/kg stood at 20% with Mus musculus [5] and 40% with Mus musculus [11].
For `O=c1n(-c2ccc(N3CCN(c4ccc(OC[C@@H]5CC[C@@](Cn6cncn6)(c6ccc(F)cc6F)C5)cc4)CC3)cc2)cnn1C1CCCC1`, the figures for the survival at 50 mg/kg with Mus musculus [1] and in the assay with Mus musculus [11] were 40% and 70%, respectively. Also, the survival at 100 mg/kg in the assay on Mus musculus [9] is 50%. The survival at 25 mg/kg in the assay with Mus musculus [8] amounted to 50%.
Take `CCC(C)n1ncn(-c2ccc(N3CCN(c4ccc(OC[C@@H]5CO[C@@](Cn6cncn6)(c6ccc(F)cc6F)C5)cc4)CC3)cc2)c1=O` (single isomer, unassigned): the survival at 50 mg/kg was 80% in the assay with Mus musculus [1], 10% in the assay with Mus musculus [2], 40% with Mus musculus [5] and 100% with Mus musculus [11]. Further, the survival at 100 mg/kg in the assay with Mus musculus [9] worked out at 90%; with Mus musculus [10] it was 30%. Moreover, the survival at 10 mg/kg was 30% with Mus musculus [3] and 80% in the assay with Mus musculus [6]. Besides, the results for the survival at 25 mg/kg in the assay with Mus musculus [4] and in the assay on Mus musculus [8] were 40% and 90%, respectively.
Consider `CCC(C)n1ncn(-c2ccc(N3CCN(c4ccc(OC[C@H]5CO[C@](Cn6cncn6)(c6cc(F)cc(F)c6)O5)cc4)CC3)cc2)c1=O` (some centres undefined), for which the survival at 25 mg/kg amounted to 0% in the assay with Mus musculus [4] and 20% in the assay on Mus musculus [8]. Also, the survival at 50 mg/kg stood at 0% with Mus musculus [5] and 30% in the assay on Mus musculus [11].
Turning to `CC(C)n1ncn(-c2ccc(N3CCN(c4ccc(OC[C@@H]5CC[C@@](Cn6cncn6)(c6ccc(F)cc6F)C5)cc4)CC3)cc2)c1=O`, the survival at 100 mg/kg with Mus musculus [10] worked out at 10%. In the assay with Mus musculus [2], this compound registered a survival at 50 mg/kg of 10%.
As for `OC(Cn1cncn1)(Cn1cncn1)c1ccc(F)cc1F` [FLUCONAZOLE], the survival at 10 mg/kg worked out at 30% with Mus musculus [3] and 90% with Mus musculus [6]. In addition, the survival at 25 mg/kg in the assay on Mus musculus [4] is 40%; with Mus musculus [8], 100%. In the assay on Mus musculus [7], this compound gave a survival at 1 mg/kg of 0%.
